ChEMBL document CHEMBL3714726, “Substituted quinoxaline carboxylic acids for the inhibition of PASK” (2014)

What was measured:
[1] = molecular target: PAS domain-containing serine/threonine-protein kinase (Homo sapiens, UniProt Q96RG2); test: Inhibition of human recombinant PASK using Ulight-peptide substrate incubated for 2 hrs by TR-FRET assay
[2] = Half life in Sprague-Dawley rat at 1 mg/kg, iv after 0.083 to 24 hrs by LC-MS/MS method; type: ADME, organism-based; settings: in vivo

PAS domain-containing serine/threonine-protein kinase, sequence (Q96RG2 whole entry, the tested form may be a part): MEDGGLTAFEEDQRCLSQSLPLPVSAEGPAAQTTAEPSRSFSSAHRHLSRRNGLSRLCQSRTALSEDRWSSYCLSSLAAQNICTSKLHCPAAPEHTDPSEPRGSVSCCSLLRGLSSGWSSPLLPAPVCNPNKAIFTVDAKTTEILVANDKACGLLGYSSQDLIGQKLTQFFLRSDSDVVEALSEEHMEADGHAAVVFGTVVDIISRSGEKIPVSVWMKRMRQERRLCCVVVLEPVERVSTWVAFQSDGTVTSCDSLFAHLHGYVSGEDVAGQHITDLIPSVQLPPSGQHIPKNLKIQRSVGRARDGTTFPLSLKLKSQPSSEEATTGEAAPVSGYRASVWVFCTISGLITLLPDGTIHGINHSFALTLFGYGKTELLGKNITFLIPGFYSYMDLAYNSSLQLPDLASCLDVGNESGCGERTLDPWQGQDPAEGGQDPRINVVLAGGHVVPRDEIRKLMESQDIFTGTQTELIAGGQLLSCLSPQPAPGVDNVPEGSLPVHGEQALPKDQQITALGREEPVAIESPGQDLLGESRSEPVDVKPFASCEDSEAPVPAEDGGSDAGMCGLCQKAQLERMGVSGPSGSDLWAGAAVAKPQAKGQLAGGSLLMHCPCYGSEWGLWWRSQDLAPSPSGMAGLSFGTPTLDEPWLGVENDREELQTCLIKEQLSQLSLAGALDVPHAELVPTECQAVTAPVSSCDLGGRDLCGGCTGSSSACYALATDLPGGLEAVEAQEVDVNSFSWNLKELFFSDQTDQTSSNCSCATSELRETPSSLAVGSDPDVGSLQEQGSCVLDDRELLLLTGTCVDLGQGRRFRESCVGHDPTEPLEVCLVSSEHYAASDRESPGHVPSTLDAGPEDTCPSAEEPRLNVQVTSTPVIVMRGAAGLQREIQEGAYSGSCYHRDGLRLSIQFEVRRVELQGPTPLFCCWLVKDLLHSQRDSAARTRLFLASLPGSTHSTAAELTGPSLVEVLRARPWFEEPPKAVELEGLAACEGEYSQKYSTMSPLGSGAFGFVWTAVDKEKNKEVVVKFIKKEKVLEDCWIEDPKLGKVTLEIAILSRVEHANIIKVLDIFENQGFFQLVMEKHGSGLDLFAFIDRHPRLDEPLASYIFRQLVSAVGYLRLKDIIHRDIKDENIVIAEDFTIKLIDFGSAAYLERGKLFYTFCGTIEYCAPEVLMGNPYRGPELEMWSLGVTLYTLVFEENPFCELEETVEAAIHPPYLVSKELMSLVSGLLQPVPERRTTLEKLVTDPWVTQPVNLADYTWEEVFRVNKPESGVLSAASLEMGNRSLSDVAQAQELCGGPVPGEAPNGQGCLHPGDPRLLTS

| IC50 [1] [µM] | half-life [2] [h] | SMILES |
| --- | --- | --- |
| ≤ 10 | – | CC(C)N(C)c1nc2cc(C(=O)O)ccc2nc1-c1nc2ccccc2o1 |
| ≤ 10 | – | COc1ccc(-c2nc3ccc(C(=O)O)cc3nc2N(C)C(C)C)cn1 |
| – | 7.72 | C[C@H]1COCCN1c1nc2cc(C(=O)O)ccc2nc1-c1ccc(F)cc1 |
